Test results from US4159373A, “7-Acyl-3-(sulfonic acid and sulfamoyl substituted tetrazolyl thiomethyl) cephalosporins” (SmithKline Corporation, priority 1978, dated 1979).
Values after ≈ are worked out from the molar mass of the structure shown. Read-outs that look alike come from different tables or passages of the source.

Tests used:
E. coli SK 12140 = assay: MIC in vitro; assay type: cell-based; details: Escherichia coli, E. coli SK 12140
Protocol: (§1) The compounds of Formula I have exceptional antibacterial activity against both Gram-positive and Gram-negative organisms. Minimum inhibitory concentrations (MIC's) ranged from 0.2 to <200 μg./ml. in in vitro testing.

E. coli HH 33779 = assay: MIC in vitro; assay type: cell-based; details: E. coli HH 33779; for MIC: Escherichia coli, HH33779, Table 1, read-out: MIC in vitro; for MIC in vitro: Table 1
Protocol: as §1

Proteus morgani 179 = assay: MIC in vitro; assay type: cell-based; details: for MIC: Table 1, read-out: MIC in vitro
Protocol: as §1

S. villaluz = assay: MIC in vitro; assay type: cell-based; details: Table 1
Protocol: as §1

Strep. Faecalis HH 34358 = assay: MIC in vitro; assay type: cell-based; details: Table 1, Strep. Faecalis HH 34358; for MIC: Enterococcus faecalis, read-out: MIC in vitro
Protocol: as §1

Salmonella ATCC 12176 = assay: MIC in vitro; assay type: cell-based; details: for MIC: Salmonella; for MIC in vitro: Table 1
Protocol: as §1

S. aureus SK 23390 = assay: MIC in vitro; assay type: cell-based; details: S. aureus SK 23390; for MIC: Staphylococcus aureus, SK23390, Table 1, read-out: MIC in vitro
Protocol: as §1

S. aureus HH 127 = assay: MIC in vitro; assay type: cell-based; details: Staphylococcus aureus, S. aureus HH 127
Protocol: as §1

Kleb. pneumo. SK 4200 = assay: MIC in vitro; assay type: cell-based, Kleb. pneumoniae; details: Table 1, Kleb. pneumo. SK 4200; for MIC: Klebsiella pneumoniae, read-out: MIC in vitro
Protocol: as §1

Kleb. pneumo. SK 1200 = assay: MIC in vitro; assay type: cell-based, Kleb. pneumoniae; details: Klebsiella pneumoniae, read-out: MIC in vitro
Protocol: as §1

Entero. cloacae HH 31254 = assay: MIC in vitro; assay type: cell-based; details: Enterobacter cloacae
Serra. marc ATCC 13880 = assay: MIC in vitro; assay type: cell-based, Serratia marcescens; details: Serra. marc ATCC 13880; for MIC: Serratia marcescens, ATCC13880, Table 1, read-out: MIC in vitro; for MIC in vitro: Table 1
Protocol: as §1

[1] = system: Entero. aerog. ATCC 13048; assay: MIC in vitro; assay type: cell-based, Enterobacter aerogenes; details: Klebsiella aerogenes, ATCC13048, Table 1; Entero. aerog. ATCC 13048; read-out: MIC in vitro
Protocol: as §1

Psuedo. sp. HH 63 = assay: MIC in vitro; assay type: cell-based, Pseudo. aeruginosa; details: Pseudomonas aeruginosa; Table 1; Psuedo. sp. HH 63; read-out: MIC in vitro
Protocol: as §1

shigella HH 117 = assay: MIC in vitro; assay type: cell-based
Protocol: as §1

Kleb. pneumo. 4200 = assay: In vivo mouse protection, Kleb. pneumo. 4200; details: sc, Table 2, Kleb. pneumo. 4200, s.c., read-out: ED50 in vivo
E. coli 12140 = assay: In vivo mouse protection, E. coli 12140; details: Escherichia coli, 12140, sc, Table 2; E. coli 12140; s.c.; read-out: ED50 in vivo
[2] = SK12140, Table 1, read-out: MIC in vitro
[3] = ATCC12176, Table 1, read-out: MIC in vitro
[4] = HH127, Table 1, read-out: MIC in vitro
[5] = HH31254, Table 1, read-out: MIC in vitro
[6] = HH31254, read-out: MIC in vitro, Table 1

| SMILES | MIC (E. coli SK 12140; [2]) [µg/mL] | MIC (E. coli HH 33779) [µg/mL] | MIC (Proteus morgani 179) [µg/mL] | MIC (Strep. Faecalis HH 34358) [µg/mL] | MIC (Salmonella ATCC 12176; [3]) [µg/mL] | MIC (S. aureus SK 23390) [µg/mL] | MIC (S. aureus HH 127; [4]) [µg/mL] | MIC (Kleb. pneumo. SK 4200) [µg/mL] | MIC (Entero. cloacae HH 31254; [5]) [µg/mL] | MIC (Serra. marc ATCC 13880) [µg/mL] | MIC (Psuedo. sp. HH 63) [µg/mL] | MIC in vitro (E. coli HH 33779) [µg/mL] | MIC in vitro (Salmonella ATCC 12176) [µg/mL] | MIC (Entero. cloacae HH 31254; [6]) [µg/mL] | ED50 (Kleb. pneumo. 4200) [mg/kg] | MIC in vitro (Serra. marc ATCC 13880) [µg/mL] | ED50 (E. coli 12140) [mg/kg] | also measured |
| --- | --- | --- | --- | --- | --- | --- | --- | --- | --- | --- | --- | --- | --- | --- | --- | --- | --- | --- |
| N#CCC(=O)NC1C(=O)N2C(C(=O)O)=C(CSc3nnnn3CS(=O)(=O)O)CS[C@H]12 (some centres unmarked) [XII, 7-cyanoacetamido-3-(1-sulfomethyltetrazol-5-ylthiomethyl)-3-cephem-4-carboxylic acid] | 0.8 (≈ 1.68 µM) | 1.6 (≈ 3.36 µM) | 200 (≈ 421 µM) | 50 (≈ 105 µM) | 0.4 (≈ 0.841 µM) | 1.6 (≈ 3.36 µM) | 1.6 (≈ 3.36 µM) | 0.8 (≈ 1.68 µM) | 1.6 (≈ 3.36 µM) | 50 (≈ 105 µM) | > 200 | – | – | – | – | – | – | MIC (S. villaluz): > 200 µg/mL; MIC (Kleb. pneumo. SK 1200): 0.4 µg/mL (≈ 0.841 µM); MIC [1]: 3.1 µg/mL (≈ 6.52 µM) |
| O=C(O)C1=C(CSc2nnnn2CS(=O)(=O)O)CS[C@@H]2C(NC(=O)[C@H](O)c3ccccc3)C(=O)N12 (stereo partly drawn) [I, 7-D-Mandelamido-3-(1-sulfomethyltetrazol-5-ylthiomethyl)-3-cephem-4-carboxylic acid] | 0.8 (≈ 1.47 µM) | 3.1 (≈ 5.71 µM) | 3 (≈ 5.53 µM) | 50 (≈ 92.2 µM) | 0.8 (≈ 1.47 µM) | – | 6 (≈ 11.1 µM) | 0.8 (≈ 1.47 µM) | 3 (≈ 5.53 µM) | 12.5 (≈ 23 µM) | > 200 | 1.6 (≈ 2.95 µM) | 0.4 (≈ 0.737 µM) | 0.8 (≈ 1.47 µM) | 0.28 | 13 (≈ 24 µM) | 1.56 | MIC (shigella HH 117; HH117, Table 1, shigella HH 117, read-out: MIC in vitro): 0.4 µg/mL (≈ 0.737 µM); MIC in vitro (Proteus morgani 179; Table 1): 3.1 µg/mL (≈ 5.71 µM); MIC in vitro (Strep. Faecalis HH 34358): 100 µg/mL (≈ 184 µM); MIC (S. aureus HH 127; HH127, read-out: MIC in vitro, Table 1): 3.1 µg/mL (≈ 5.71 µM) |
| O=C(CSC(F)(F)F)NC1C(=O)N2C(C(=O)O)=C(CSc3nnnn3CS(=O)(=O)O)CSC12 (centres unmarked) [VII, 7-Trifluoromethylthioacetamido-3-(1-sulfomethyltetrazol-5-ylthiomethyl)-3-cephem-4-carboxylic acid] | 0.8 (≈ 1.45 µM) | 3.1 (≈ 5.63 µM) | 100 (≈ 182 µM) | 50 (≈ 90.8 µM) | – | 0.8 (≈ 1.45 µM) | 0.8 (≈ 1.45 µM) | 0.4 (≈ 0.727 µM) | 3.1 (≈ 5.63 µM) | 200 (≈ 363 µM) | > 200 | 1.6 (≈ 2.91 µM) | 0.2 (≈ 0.363 µM) | 0.8 (≈ 1.45 µM) | 0.24 | 100 (≈ 182 µM) | 0.86 | MIC (shigella HH 117; Shigella, HH117, read-out: MIC in vitro): 0.8 µg/mL (≈ 1.45 µM); MIC (E. coli SK 12140; SK12140, read-out: MIC in vitro, Table 1): 0.4 µg/mL (≈ 0.727 µM); MIC (Salmonella ATCC 12176; ATCC12176, read-out: MIC in vitro, Table 1): 0.4 µg/mL (≈ 0.727 µM); MIC in vitro (S. aureus SK 23390; Table 1): 0.4 µg/mL (≈ 0.727 µM); MIC in vitro (Kleb. pneumo. SK 4200): 0.2 µg/mL (≈ 0.363 µM); MIC (Kleb. pneumo. SK 1200; Table 1, Kleb. pneumo. SK 1200): 0.2 µg/mL (≈ 0.363 µM) |
